The compounds below were run against T1, hTSHR (Homo sapiens, UniProt P16473) (assay: hTSHR TR-FRET cAMP Assay (inhibition of M22-stimulated cAMP production)). Conditions: Expi293F Inducible cells stably expressing hTSHR; cAMP HTRF; stimulated with EC80 of anti-TSHR antibody M22; 15 min compound preincubation, 30 min at 37° C.; read-out: Activity (IC50 bins).
T1 construct: expressed in transfected cells
Assay type: cell-based
Outline: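 Readout was a cAMP HTRF ratio of 655/620 nm after lysis, scaled between the EC80 M22 signal (0% inhibition) and no-agonist vehicle (100%). Frozen induced Expi293F-hTSHR cells saw test compounds (0.5% DMSO) for 15 min at 37 °C before 30 min of M22 stimulation at EC80.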

T1 sequence (P16473 21-764): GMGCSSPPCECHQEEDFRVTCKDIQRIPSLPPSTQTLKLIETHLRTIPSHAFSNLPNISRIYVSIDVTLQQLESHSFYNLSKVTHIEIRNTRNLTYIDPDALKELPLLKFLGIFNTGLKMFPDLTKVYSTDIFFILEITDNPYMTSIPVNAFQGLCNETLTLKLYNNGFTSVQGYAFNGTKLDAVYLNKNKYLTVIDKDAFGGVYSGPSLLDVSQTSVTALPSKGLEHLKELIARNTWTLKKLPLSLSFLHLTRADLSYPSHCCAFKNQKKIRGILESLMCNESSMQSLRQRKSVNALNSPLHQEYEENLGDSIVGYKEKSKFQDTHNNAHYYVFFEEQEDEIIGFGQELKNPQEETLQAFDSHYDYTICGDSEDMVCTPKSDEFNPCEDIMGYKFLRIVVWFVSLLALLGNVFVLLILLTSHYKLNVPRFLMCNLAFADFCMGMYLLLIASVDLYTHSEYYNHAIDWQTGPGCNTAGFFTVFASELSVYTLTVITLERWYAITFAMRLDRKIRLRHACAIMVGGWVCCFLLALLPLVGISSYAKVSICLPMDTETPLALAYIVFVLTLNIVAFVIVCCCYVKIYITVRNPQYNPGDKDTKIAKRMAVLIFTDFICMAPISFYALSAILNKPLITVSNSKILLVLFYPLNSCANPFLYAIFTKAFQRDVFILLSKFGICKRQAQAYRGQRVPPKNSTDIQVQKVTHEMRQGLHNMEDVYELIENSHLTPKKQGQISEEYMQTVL

SMILES | IC50
C[C@@H](c1cc(F)ccc1Cl)n1c(=O)cnc2cc(NC(=O)NC(C)(C)C)ccc21 [Example 147, (S)-1-(tert-butyl)-3-(1-(1-(2-chloro-5-fluorophenyl)ethyl)-2-oxo-1,2-dihydroquinoxalin-6-yl)urea] | 100 to 1000 nM
C[C@@H](c1cccc(OC(F)(F)F)c1)n1c(=O)cnc2cc(NC(=O)NC3(C(F)(F)F)CCCC3)ccc21 [Example 217] | 100 to 1000 nM
C[C@@H](c1cccc(C2CC2)n1)n1c(=O)cnc2cc(NC(=O)NC(C)(C)C)ccc21 [Example 143, (S)-1-(tert-butyl)-3-(1-(1-(6-cyclopropylpyridin-2-yl)ethyl)-2-oxo-1,2-dihydroquinoxalin-6-yl)urea] | 100 to 1000 nM
C[C@H](c1ccnc(C(F)(F)F)n1)N1C(=O)[C@@H](C)Oc2cc(NC(=O)NC(C)(C)C)ccc21 (single isomer, unassigned) [Example 311] | > 1000 nM
CC(C)(C)NC(=O)Nc1ccc2c(c1)OCC(=O)N2Cc1cccc([C@@H](O)C(F)(F)F)c1 [Example 78, (R)-1-(tert-butyl)-3-(3-oxo-4-(3-(2,2,2-trifluoro-1-hydroxyethyl)ben-zyl)-3,4-dihydro-2H-benzo[b][1,4]oxa-zin-7-yl)urea] | 100 to 1000 nM
C[C@@H](c1cccc(OC(F)F)c1)n1c(=O)cnc2cc(NC(=O)NC(C)(C)C)ccc21 [Example 128, (S)-1-(tert-butyl)-3-(1-(1-(3-(difluoromethoxy)phe-nyl)ethyl)-2-oxo-1,2-dihydroquinoxalin-6-yl)urea] | 100 to 1000 nM
CN1Cc2cc(NC(=O)NC(C)(C)C)ccc2N(Cc2ccccc2)C1=O [Example 12, 1-(1-benzyl-3-methyl-2-oxo-1,2,3,4-tetrahydroquinazolin-6-yl)-3-(tert-butyl)urea] | 100 to 1000 nM
C[C@H]1Oc2cc(NC(=O)NC(C)(C)C)ccc2N([C@@H](C)c2ccnc(C(F)(F)F)n2)C1=O (single isomer, unassigned) [Example 310] | 100 to 1000 nM
C[C@@H](c1cccc(OC(F)(F)F)c1)n1c(=O)cnc2cc(NC(=O)C3CCCC3)ccc21 [Example 315, (S)—N-(2-oxo-1-(1-(3-(trifluoromethoxy)phenyl)ethyl)-1,2-dihydroquinoxalin-6-yl)cyclopentanecarboxamide] | 100 to 1000 nM
C[C@@H](c1ccccc1)n1c(=O)cnc2cc(NC(=O)NC(C)(C)C)c(C(F)(F)F)cc21 [Example 346, 3-tert-butyl-1-{2-oxo-1-[(1S)-1-phenylethyl]-7-(trifluoromethyl)quinoxalin-6-yl}urea] | 100 to 1000 nM
C[C@H]1Oc2cc(NC(=O)NC(C)(C)C)c(F)cc2N([C@@H](C)c2ccccc2)C1=O [Example 328, 1-(tert-butyl)-3-((R)-6-fluoro-2-methyl-3-oxo-4-((S)-1-phenylethyl)-3,4-dihydro-2H-benzo[b][1,4]oxazin-7-yl)urea] | 100 to 1000 nM
C[C@H]1Oc2cc(NC(=O)NC(C)(C)C)c(C(F)(F)F)cc2N(Cc2ccccc2)C1=O [Example 330, (R)-1-(4-benzyl-2-methyl-3-oxo-6-(trifluoromethyl)-3,4-dihydro-2H-benzo[b][1,4]oxazin-7-yl)-3-(tert-butyl)urea] | < 100 nM
C[C@@H](c1cccc(CCCC(C)(C)O)c1)n1c(=O)cnc2cc(NC(=O)NC(C)(C)C)ccc21 [Example 118, (S)-1-(tert-butyl)-3-(1-(1-(3-(4-hydroxy-4-methylpentyl)phenyl)ethyl)-2-oxo-1,2-dihydroquinoxalin-6-yl)urea] | > 1000 nM
CC(c1cc(F)cc(OC(F)(F)F)c1)n1c(=O)cnc2cc(NC(=O)NC(C)(C)C)ccc21 (centres unmarked) [Example 247, 1-(tert-butyl)-3-(1-(1-(3-fluoro-5-(tri-fluoromethoxy)phenyl)ethyl)-2-oxo-1,2-dihydro-quinoxalin-6-yl)urea] | 100 to 1000 nM
CC(c1cccc(C2CCC2)c1)n1c(=O)cnc2cc(NC(=O)NC(C)(C)C)ccc21 (centres unmarked) [Example 246, 1-(tert-butyl)-3-(1-(1-(3-cyclobutylphenyl)ethyl)-2-oxo-1,2-dihydroquinoxalin-6-yl)urea] | 100 to 1000 nM
C[C@H]1Oc2nc(NC(=O)NC(C)(C)C)c(C(F)(F)F)cc2N(Cc2cccc(C(F)F)c2)C1=O [Example 374, (R)-1-(tert-butyl)-3-(1-(3-(difluoromethyl)benzyl)-3-methyl-2-oxo-7-(trifluoromethyl)-2,3-dihydro-1H-pyrido[2,3-b][1,4]oxazin-6-yl)urea] | < 100 nM
CC(C)(C)NC(=O)Nc1ccc2c(c1)OCC(=O)N2Cc1cccc(C2CC2)c1 [Example 73, 1-(tert-butyl)-3-(4-(3-cyclopropylbenzyl)-3-oxo-3,4-dihydro-2H-benzo[b][1,4]oxa-zin-7-yl)urea] | 100 to 1000 nM
C[C@H]1Oc2cc(NC(=O)NC(C)(C)C)ccc2N([C@@H](C)c2ccccc2Cl)C1=O [Example 189, 1-(tert-butyl)-3-((R)-4-((S)-1-(2-chlorophenyl)ethyl)-2-methyl-3-oxo-3,4-dihydro-2H-benzo[b][1,4]oxazin-7-yl)urea] | < 100 nM

SMILES | IC50
CC(C)(C)NC(=O)Nc1ccc2c(c1)CCC(=O)N2Cc1cccc(C(F)(F)F)c1C#N [Example 59, 1-(tert-butyl)-3-(1-(2-cyano-3-(trifluoromethyl)benzyl)-2-oxo-1,2,3,4-tetrahydroquinolin-6-yl)urea] | 100 to 1000 nM
C[C@@H](c1cccc(Oc2ccccc2)c1)n1c(=O)cnc2cc(NC(=O)NC(C)(C)C)ccc21 [Example 114, (S)-1-(tert-butyl)-3-(2-oxo-1-(1-(3-phenoxyphenyl)ethyl)-1,2-dihydroquinoxalin-6-yl)urea] | 100 to 1000 nM
C[C@H](c1cccc(OCC(F)(F)F)c1)n1c(=O)cnc2cc(NC(=O)NC(C)(C)C)ccc21 [Example 314, (R)-1-(tert-butyl)-3-(2-oxo-1-(1-(3-(2,2,2-trifluoroethoxy)phenyl)ethyl)-1,2-dihydroquinoxalin-6-yl)urea] | 100 to 1000 nM
C[C@@H]1Oc2cc(NC(=O)NC(C)(C)C)ccc2N(Cc2ccccc2)C1=O [Example 42, (S)-1-(4-benzyl-2-methyl-3-oxo-3,4-dihydro-2H-benzo[b][1,4]oxazin-7-yl)-3-(tert-butyl)urea] | < 100 nM
C[C@H]1Oc2cc(NC(=O)NC3CCC(F)(F)CC3)ccc2N(Cc2cccc(C(F)(F)F)n2)C1=O [Example 235, (R)-1-(4,4-difluorocyclohexyl)-3-(2-methyl-3-oxo-4-((6-(trifluoromethyl)pyridin-2-yl)methyl)-3,4-dihydro-2H-benzo[b][1,4]oxazin-7-yl)urea] | 100 to 1000 nM
CC(C)(O)CNC(=O)Nc1ccc2c(c1)ncc(=O)n2Cc1cccc(OC(F)(F)F)c1 [Example 239, 1-(2-hydroxy-2-methylpropyl)-3-(2-oxo-1-(3-(trifluoromethoxy)benzyl)-1,2-dihydroquinoxalin-6-yl)urea] | > 1000 nM
C[C@H]1Oc2cc(NC(=O)NC3(C)CCCC3)ccc2N([C@@H](C)c2ccccc2)C1=O [Example 256, 1-((R)-2-methyl-3-oxo-4-((S)-1-phenyl-ethyl)-3,4-dihydro-2H-benzo[b][1,4]oxazin-7-yl)-3-(1-methylcyclopentyl)-urea] | < 100 nM
Cc1cccc([C@H](C)N2C(=O)COc3cc(NC(=O)NC(C)(C)C)ccc32)c1 [Example 57, (S)-1-(tert-butyl)-3-(3-oxo-4-(1-(m-tolyl)ethyl)-3,4-dihydro-2H-benzo[b][1,4]oxazin-7-yl)urea] | < 100 nM
C[C@H]1Oc2cc(NC(=O)NC(C)(C)C)ccc2N(Cc2ccccc2Cl)C1=O [Example 178, (R)-1-(tert-butyl)-3-(4-(2-chloro-benzyl)-2-methyl-3-oxo-3,4-dihydro-2H-benzo [b][1,4]oxazin-7-yl)urea] | 100 to 1000 nM
C[C@H]1Oc2cc(NC(=O)NC(C)(C)C)c(C#N)cc2N(Cc2ccccc2)C1=O [Example 341, (R)-1-(4-benzyl-6-cyano-2-methyl-3-oxo-3,4-dihydro-2H-benzo[b][1,4]oxazin-7-yl)-3-(tert-butyl)urea] | 100 to 1000 nM
C[C@@H](c1cccc(C2CCC2)c1)n1c(=O)cnc2cc(NC(=O)NC(C)(C)C)ccc21 [Example 135, (S)-1-(tert-butyl)-3-(1-(1-(3-cyclo-butylphenyl)ethyl)-2-oxo-1,2-dihydroquinoxalin-6-yl)urea] | 100 to 1000 nM
O=C(Nc1ccccc1)Nc1ccc2c(c1)CCC(=O)N2Cc1ccccc1 [Example 284, 3-(1-benzyl-2-oxo-3,4-dihydroquinolin-6-yl)-1-phenylurea] | > 1000 nM
C[C@@H](c1cccc(OC(F)(F)F)c1)n1c(=O)cnc2c(F)c(NC(=O)NC(C)(C)C)ccc21 [Example 353, 3-tert-butyl-1-{5-fluoro-2-oxo-1-[(1S)-1-[3-(trifluoromethoxy)phenyl]ethyl]quinoxalin-6-yl}urea] | 100 to 1000 nM
C[C@H]1Oc2cc(NC(=O)NC(C)(C)C)ccc2N([C@@H](C)c2cc(Cl)ccc2Cl)C1=O [Example 190, 1-(tert-butyl)-3-((R)-4-((S)-1-(2,5-dichlorophenyl)ethyl)-2-methyl-3-oxo-3,4-dihydro-2H-benzo[b][1,4]oxazin-7-yl)urea] | 100 to 1000 nM
C[C@@H](c1cccc(OC(F)(F)F)c1)n1c(=O)cnc2cc(NC(=O)NC3(C)CC(F)(F)C3)ccc21 [Example 221, (S)-1-(3,3-difluoro-1-methylcyclobuty 1)-3-(2-oxo-1-(1-(3-(trifluoromethoxy)phenyl)ethyl)-1,2-dihydroquinoxalin-6-yl)urea] | 100 to 1000 nM
CC(C)(C)NC(=O)Nc1ccc2c(c1)CCC(=O)N2C1CCOc2ccccc21 (centres unmarked) [Example 298, 1-(tert-butyl)-3-(1-(chroman-4-yl)-2-oxo-1,2,3,4-tetrahydroquinolin-6-yl)urea] | > 1000 nM
C[C@H]1Oc2cc(NC(=O)NC(C)(C)C)c(C#N)cc2N(Cc2cc(Cl)ccc2Cl)C1=O [Example 367, 3-tert-butyl-1-[(2R)-6-cyano-4-[(2,5-dichlorophenyl)methyl]-2-methyl-3-oxo-2H-1,4-benzoxazin-7-yl]urea] | 100 to 1000 nM
